The text below walks through data of patent US8163771B2, “11 β-HSD1 modulators” (Exelixis, Inc., priority 2008, dated 2012).

SMILES strings stand for the structures. Some results are limits rather than exact numbers.

This test deals with T1, recombinant human 11 β-HSD1 (Homo sapiens, UniProt P28845).
T1 construct: made in house; host or cells: E. coli
T1 sequence (P28845 whole entry): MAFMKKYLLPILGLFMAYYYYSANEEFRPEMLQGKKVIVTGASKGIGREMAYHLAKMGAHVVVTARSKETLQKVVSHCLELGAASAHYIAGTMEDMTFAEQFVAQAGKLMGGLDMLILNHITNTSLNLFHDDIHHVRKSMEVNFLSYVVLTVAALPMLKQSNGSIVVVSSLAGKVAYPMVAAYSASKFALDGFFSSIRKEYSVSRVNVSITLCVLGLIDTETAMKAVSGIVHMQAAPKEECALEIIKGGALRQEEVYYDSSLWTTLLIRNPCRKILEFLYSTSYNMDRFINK
Put plainly: 11 β-HSD1 SPA Assay (Scintillation Proximity Assay). Type of test: biochemical. Put shortly:
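E. coli-expressed human enzyme (30-100 nM) with tritiated cortisone 40 nM and NADPH 1 mM in HEPES buffer pH7.4, 2 hours at room temperature. Stopped with protein A SPA beads carrying anti-cortisol antibody and glycyrrhetinic acid; counted after overnight incubation. IC50 from percent inhibition between no-enzyme and no-compound signals.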
By IC50 is commonly meant the point on the concentration scale where inhibition reaches its midpoint. As for `CC(C)(Oc1ccc(Cl)cc1Cl)C(=O)N[C@H]1C[C@H]2CC[C@@H](C1)N2c1ncc(C(=O)NCC(F)(F)F)cc1Cl` [Example 131, 5-chloro-6-[3-endo-({2-[(2,4-dichlorophenyl)oxy]-2-methylpropanoyl}amino)-8-azabicyclo[3.2.1]oct-8-yl]-N-(2,2,2-trifluoroethyl)pyridine-3-carboxamide], the IC50 is below 200 nM.
For `CC(C)(Oc1ccc(Cl)cc1Cl)C(=O)N[C@H]1C[C@H]2CC[C@@H](C1)N2c1cc(C(=O)NCC(F)(F)F)ccn1` [Example 171, 2-[3-endo-({2-[(2,4-dichlorophenyl)oxy]-2-methylpropanoyl}amino)-8-azabicyclo[3.2.1]oct-8-yl]-N-(2,2,2-trifluoroethyl)pyridine-4-carboxamide] the value was below 2000 nM.
The figure for `CC(C)(Oc1ccc(Cl)cc1Cl)C(=O)N[C@H]1C[C@H]2CC[C@@H](C1)N2c1ncc(C(=O)NC2CC2)cc1Cl` [Example 86, 5-chloro-N-cyclopropyl-6-[3-endo-({2-[(2,4-dichlorophenyl)oxy]-2-methylpropanoyl}amino)-8-azabicyclo[3.2.1]oct-8-yl]pyridine-3-carboxamide] is below 200 nM; for `CC(C)(Oc1cc(F)c(F)cc1F)C(=O)N[C@H]1C[C@H]2CC[C@@H](C1)N2c1ccc(S(C)(=O)=O)cc1` [Example 234, 2-methyl-N-{8-[4-(methylsulfonyl)phenyl]-8-azabicyclo[3.2.1]oct-3-endo-yl}-2-[(2,4,5-trifluorophenyl)oxy]propanamide] it is below 2000 nM.
The figure for `N#Cc1ccnc(N2[C@@H]3CC[C@H]2C[C@@H](NC(=O)C2(c4ccc(Cl)cc4)CC2)C3)c1` [Example 18, 1-(4-chlorophenyl)-N-[8-(4-cyanopyridin-2-yl)-8-azabicyclo[3.2.1]oct-3-endo-yl]cyclopropanecarboxamide] is below 2000 nM; for `CC(C)(Oc1ccc(Cl)c(Cl)c1)C(=O)N[C@H]1C[C@H]2CC[C@@H](C1)N2c1ccc(S(C)(=O)=O)cc1` [Example 206, 2-[(3,4-dichlorophenyl)oxy]-2-methyl-N-{8-[4-(methylsulfonyl)phenyl]-8-azabicyclo[3.2.1]oct-3-endo-yl}propanamide] it is below 2000 nM.
For `CC(C)(Oc1ccc(Cl)c(Cl)c1)C(=O)N[C@H]1C[C@H]2CC[C@@H](C1)N2c1ccc(S(N)(=O)=O)cn1` [Example 205, N-{8-[5-(aminosulfonyl)pyridin-2-yl]-8-azabicyclo[3.2.1]oct-3-endo-yl}-2-[(3,4-dichlorophenyl)oxy]-2-methylpropanamide], the half-inhibitory concentration (IC50) was below 200 nM.
For `CC(C)(Oc1ccc(F)cc1Cl)C(=O)N[C@H]1C[C@H]2CC[C@@H](C1)N2c1ccc(S(N)(=O)=O)cn1` [Example 158, N-{8-[5-(aminosulfonyl)pyridin-2-yl]-8-azabicyclo[3.2.1]oct-3-endo-yl}-2-[(2-chloro-4-fluorophenyl)oxy]-2-methylpropanamide] the value was below 200 nM; for `CC(C)(Oc1cc(F)c(Cl)cc1Cl)C(=O)N[C@H]1C[C@H]2CC[C@@H](C1)N2c1ccc(C(=O)NC2CC2)cn1` [Example 91, N-cyclopropyl-6-[3-endo-({2-[(2,4-dichloro-5-fluorophenyl)oxy]-2-methylpropanoyl}amino)-8-azabicyclo[3.2.1]oct-8-yl]pyridine-3-carboxamide], below 200 nM.
The figure for `CC(C)(Oc1ccc(Cl)cc1Cl)C(=O)N[C@H]1C[C@H]2CC[C@@H](C1)N2c1cccnc1` [Example 106, 2-[(2,4-dichlorophenyl)oxy]-2-methyl-N-(8-pyridin-3-yl-8-azabicyclo[3.2.1]oct-3-endo-yl)propanamide] is below 200 nM.
Consider `CC(Oc1ccccc1)C(=O)N[C@H]1C[C@H]2CC[C@@H](C1)N2c1ccc(C(=O)NC2CC2)cn1` (stereo partly drawn) [Example 48, N-cyclopropyl-6-(3-endo-{[2-(phenyloxy)propanoyl]amino}-8-azabicycio[3.2.1]oct-8-yl)pyridine-3-carboxamide], for which the IC50 is below 2000 nM.
The figure for `C[C@H](NC(=O)c1ccc(N2C3CCC2CC(NC(=O)C(C)(C)Oc2ncc(Cl)cc2F)C3)nc1)C(F)(F)F` (stereo partly drawn) [Example 419, 6-[3-endo-({2-[(5-chloro-3-fluoropyridin-2-yl)oxy]-2-methylpropanoyl}amino)-8-azabicyclo[3.2.1]oct-8-yl]-N-[(2S)-1,1,1-trifluoropropan-2-yl]pyridine-3-carboxamide] is below 2000 nM.
For `CC(C)(Oc1ccc(Cl)cc1Cl)C(=O)N[C@H]1C[C@H]2CC[C@@H](C1)N2c1ccc(NC(=O)CC(F)(F)F)cn1` [Example 147, N-{6-[3-endo-({2-[(2,4-dichlorophenyl)oxy]-2-methylpropanoyl}amino)-8-azabicyclo[3.2.1]oct-8-yl]pyridin-3-yl}-3,3,3-trifluoropropanamide] the value was below 200 nM; for `CC(C)(Oc1ccc(Cl)cc1Cl)C(=O)N[C@H]1C[C@H]2CC[C@@H](C1)N2c1ccc(C(=O)NCC(F)(F)F)cn1` [Example 65, 6-[3-endo-({2-[(2,4-dichlorophenyl)oxy]-2-methylpropanoyl}amino)-8-azabicyclo[3.2.1]oct-8-yl]-N-(2,2,2-trifluoroethyl)pyridine-3-carboxamide], below 200 nM.
The figure for `CC(C)(Oc1ccc(Cl)cc1S(C)(=O)=O)C(=O)N[C@H]1C[C@H]2CC[C@@H](C1)N2c1ccc(C(=O)NCC(F)(F)F)cn1` [Example 321, 6-{3-endo-[(2-{[4-chloro-2-(methylsulfonyl)phenyl]oxy}-2-methylpropanoyl)amino]-8-azabicyclo[3.2.1]oct-8-yl}-N-(2,2,2-trifluoroethyl)pyridine-3-carboxamide] is below 200 nM.
As for `CC(C)(Oc1cc(F)c(F)cc1Cl)C(=O)N[C@H]1C[C@H]2CC[C@@H](C1)N2c1ccc(S(C)(=O)=O)cn1` [Example 231, 2-[(2-chioro-4,5-difluorophenyl)oxy]-2-methyl-N-{8-[5-(methylsulfonyl)pyridin-2-yl]-8-azabicyclo[3.2.1]oct-3-endo-yl}propanamide], the half-maximal inhibitory concentration (IC50) is below 200 nM.
For `COc1ccc(OC(C)(C)C(=O)N[C@H]2C[C@H]3CC[C@@H](C2)N3c2ccc(S(C)(=O)=O)cc2)cc1` [Example 182, 2-methyl-2-{[4-(methyloxy)phenyl]oxy}-N-{8-[4-(methylsulfonyl)phenyl]-8-azabicyclo[3.2.1]oct-3-endo-yl}propanamide] the value was below 2000 nM.
For `CC(=O)c1ccc(N2[C@@H]3CC[C@H]2C[C@@H](NC(=O)C(C)(C)Oc2ccc(Cl)cc2Cl)C3)nc1` [Example 87, N-[8-(5-acetylpyridin-2-yl)-8-azabicyclo[3.2.1]oct-3-endo-yl]-2-[(2,4-dichlorophenyl)oxy]-2-methylpropanamide] the value was below 200 nM; for `CC(C)(Oc1ccc(Cl)cc1F)C(=O)N[C@H]1C[C@H]2CC[C@@H](C1)N2c1ccc(C(=O)NCC(F)(F)F)cn1` [Example 105, 6-[3-endo-({2-[(4-chloro-2-fluorophenyl)oxy]-2-methylpropanoyl}amino)-8-azabicyclo[3.2.1]oct-8-yl]-N-(2,2,2-trifluoroethyl)pyridine-3-carboxamide], below 200 nM.
On to `CC(C)(Oc1ccc(F)cc1Cl)C(=O)NC1CC2CCC(C1)N2c1ccc(C(=O)NCC(O)C(F)(F)F)cn1` (stereo not drawn) [Example 457, 6-(3-endo-{[2-(2-chloro-4-fluorophenoxy)-2-methylpropanoyl]amino}-8-azabicyclo[3.2.1]oct-8-yl)-N-(3,3,3-trifluoro-2-hydroxypropyl)pyridine-3-carboxamide], for which the IC50 is below 200 nM.
For `CC(C)(Oc1ccc(Cl)cc1Cl)C(=O)N[C@H]1C[C@H]2CC[C@@H](C1)N2c1ccc(-c2nnn[nH]2)cn1` [Example 114, 2-[(2,4-dichlorophenyl)oxy]-2-methyl-N-{8-[5-(1H-tetrazol-5-yl)pyridin-2-yl]-8-azabicyclo[3.2.1]oct-3-endo-yl}propanamide] the value was below 200 nM; for `CC(C)(Oc1cc(F)ccc1C(F)(F)F)C(=O)N[C@H]1C[C@H]2CC[C@@H](C1)N2c1ccc(C(=O)NCC(F)(F)F)cn1` [Example 319, 6-{3-endo-[(2-{[5-fluoro-2-(trifluoromethyl)phenyl]oxy}-2-methylpropanoyl)amino]-8-azabicyclo[3.2.1]oct-8-yl}-N-(2,2,2-trifluoroethyl)pyridine-3-carboxamide], below 200 nM.
The figure for `Cc1cc(F)ccc1OC(C)(C)C(=O)N[C@H]1C[C@H]2CC[C@@H](C1)N2c1ccc(S(C)(=O)=O)cn1` [Example 217, 2-[(4-fluoro-2-methylphenyl)oxy]-2-methyl-N-{8-[5-(methylsulfonyl)pyridin-2-yl]-8-azabicyclo[3.2.1]oct-3-endo-yl}propanamide] is below 200 nM; for `CC(C)(Oc1ncc(Cl)cc1C(F)(F)F)C(=O)N[C@H]1C[C@H]2CC[C@@H](C1)N2c1ccc(S(C)(=O)=O)cc1` [Example 325, 2-{[5-chloro-3-(trifluoromethyl)pyridin-2-yl]oxy}-2-methyl-N-{8-[4-(methylsulfonyl)phenyl]-8-azabicyclo[3.2.1]oct-3-endo-yl}propanamide] it is below 200 nM.
For the compound `CC(C)(Oc1cc(C(C)(C)O)c(Cl)cc1Cl)C(=O)N[C@H]1C[C@H]2CC[C@@H](C1)N2c1ccc(C(=O)O)cn1` [Example 474, 6-[3-endo-({2-[2,4-dichloro-5-(2-hydroxypropan-2-yl)phenoxy]-2-methylpropanoyl}amino)-8-azabicyclo[3.2.1]oct-8-yl]pyridine-3-carboxylic acid], the IC50 is below 2000 nM.
The figure for `CC(C)(Oc1ccc(F)c(Cl)c1Cl)C(=O)N[C@H]1C[C@H]2CC[C@@H](C1)N2c1ccc(S(N)(=O)=O)cn1` [Example 215, N-{8-[5-(aminosulfonyl)pyridin-2-yl]-8-azabicyclo[3.2.1]oct-3-endo-yl}-2-[(2,3-dichloro-4-fluorophenyl)oxy]-2-methylpropanamide] is below 200 nM; for `O=C(O)c1ccc(N2[C@@H]3CC[C@H]2C[C@@H](NC(=O)C2(c4ccc(Cl)cc4)CC2)C3)nc1` [Example 19, 6-[3-endo-({[1-(4-chlorophenyl)cyclopropyl]carbonyl}amino)-8-azabicyclo[3.2.1]oct-8-yl]pyridine-3-carboxylic acid] it is below 2000 nM.
